Tests used:
Test in all cases: relative viability (nuclei count vs DMSO), 5 days (fraction); higher = more cells survive
CAL-12T = tested on: CAL-12T
Outline: (§1)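 Lung cancer cell lines in 1536-well plates got either a single drug or a fixed anchor-drug dose together with five library-drug doses (not always all listed) in √10 steps, by pin tool, on the day after seeding. Nuclei were counted after 5 days, and relative viability is the treated-to-vehicle ratio of nuclei counts. Values are medians of duplicate plates.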

COR-L 105 = tested on: COR-L 105
Outline: as §1

EMC-BAC-2 = tested on: EMC-BAC-2
Outline: as §1

H3255 = tested on: H3255
Outline: as §1

LC-2-ad = tested on: LC-2-ad
Outline: as §1

LK-2 = tested on: LK-2
Outline: as §1

NCI-H1395 = tested on: NCI-H1395
Outline: as §1

NCI-H1437 = tested on: NCI-H1437
Outline: as §1

NCI-H1651 = tested on: NCI-H1651
Outline: as §1

NCI-H1755 = tested on: NCI-H1755
Outline: as §1

NCI-H1793 = tested on: NCI-H1793
Outline: as §1

NCI-H1915 = tested on: NCI-H1915
Outline: as §1

NCI-H1944 = tested on: NCI-H1944
Outline: as §1

NCI-H2085 = tested on: NCI-H2085
Outline: as §1

NCI-H2087 = tested on: NCI-H2087
Outline: as §1

NCI-H2228 = tested on: NCI-H2228
Outline: as §1

NCI-H2342 = tested on: NCI-H2342
Outline: as §1

NCI-H2347 = tested on: NCI-H2347
Outline: as §1

NCI-H522 = tested on: NCI-H522
Outline: as §1

NCI-H661 = tested on: NCI-H661
Outline: as §1

PC-3 [JPC-3] = tested on: PC-3 [JPC-3]
Outline: as §1

SK-LU-1 = tested on: SK-LU-1
Outline: as §1

Q: For `COCC1(CO)C(=O)C2CCN1CC2` (stereo unspecified) [PRIMA-1MET] + O=C(CCCCCCC(=O)Nc1ccccc1)NO [Vorinostat] (partner 1 µM), which relative viability (CAL-12T; first compound 0.2 µM) is on record?
A: 0.78

Q: What about the relative viability (CAL-12T; first compound 0.6325 µM) of the same compound?
A: 0.694

Q: And the relative viability (CAL-12T; first compound 2 µM)?
A: 0.637

Q: And the relative viability (CAL-12T; first compound 6.325 µM)?
A: 0.589

Q: What about the relative viability (CAL-12T; first compound 20 µM) of the same compound?
A: 0.0657

Q: What about the relative viability (COR-L 105; first compound 0.2 µM) of the same compound?
A: 1.13

Q: What about the relative viability (COR-L 105; first compound 0.6325 µM) of the same compound?
A: 0.859

Q: What about the relative viability (COR-L 105; first compound 2 µM) of the same compound?
A: 0.769

Q: And the relative viability (COR-L 105; first compound 6.325 µM)?
A: 0.771

Q: What about the relative viability (COR-L 105; first compound 20 µM) of the same compound?
A: 0.196

Q: And the relative viability (EMC-BAC-2; first compound 0.2 µM)?
A: 0.582

Q: And the relative viability (EMC-BAC-2; first compound 0.6325 µM)?
A: 0.36

Q: And the relative viability (EMC-BAC-2; first compound 2 µM)?
A: 0.335

Q: And the relative viability (EMC-BAC-2; first compound 6.325 µM)?
A: 0.527

Q: What about the relative viability (EMC-BAC-2; first compound 20 µM) of the same compound?
A: 0.271

Q: And the relative viability (H3255; first compound 0.2 µM)?
A: 0.745

Q: And the relative viability (H3255; first compound 0.6325 µM)?
A: 0.779

Q: And the relative viability (H3255; first compound 2 µM)?
A: 0.809

Q: What about the relative viability (H3255; first compound 6.325 µM) of the same compound?
A: 0.901

Q: What about the relative viability (H3255; first compound 20 µM) of the same compound?
A: 0.656

Q: And the relative viability (LC-2-ad; first compound 0.2 µM)?
A: 0.798

Q: What about the relative viability (LC-2-ad; first compound 0.6325 µM) of the same compound?
A: 0.578

Q: And the relative viability (LC-2-ad; first compound 2 µM)?
A: 0.679

Q: What about the relative viability (LC-2-ad; first compound 6.325 µM) of the same compound?
A: 0.733

Q: What about the relative viability (LC-2-ad; first compound 20 µM) of the same compound?
A: 0.645

Q: And the relative viability (LK-2; first compound 0.2 µM)?
A: 0.181

Q: What about the relative viability (LK-2; first compound 0.6325 µM) of the same compound?
A: 0.255

Q: What about the relative viability (LK-2; first compound 2 µM) of the same compound?
A: 0.166

Q: And the relative viability (LK-2; first compound 6.325 µM)?
A: 0.325

Q: What about the relative viability (LK-2; first compound 20 µM) of the same compound?
A: 0.0975

Q: What about the relative viability (NCI-H1395; first compound 0.2 µM) of the same compound?
A: 0.623

Q: And the relative viability (NCI-H1395; first compound 2 µM)?
A: 0.534

Q: And the relative viability (NCI-H1395; first compound 6.325 µM)?
A: 0.762

Q: What about the relative viability (NCI-H1395; first compound 20 µM) of the same compound?
A: 0.26

Q: What about the relative viability (NCI-H1437; first compound 0.2 µM) of the same compound?
A: 0.951

Q: And the relative viability (NCI-H1437; first compound 0.6325 µM)?
A: 0.685

Q: What about the relative viability (NCI-H1437; first compound 2 µM) of the same compound?
A: 0.792

Q: What about the relative viability (NCI-H1437; first compound 6.325 µM) of the same compound?
A: 0.939

Q: What about the relative viability (NCI-H1437; first compound 20 µM) of the same compound?
A: 0.776

Q: What about the relative viability (NCI-H1651; first compound 0.2 µM) of the same compound?
A: 0.563

Q: What about the relative viability (NCI-H1651; first compound 0.6325 µM) of the same compound?
A: 0.188

Q: And the relative viability (NCI-H1651; first compound 2 µM)?
A: 0.458

Q: What about the relative viability (NCI-H1651; first compound 6.325 µM) of the same compound?
A: 0.617

Q: What about the relative viability (NCI-H1651; first compound 20 µM) of the same compound?
A: 0.564

Q: And the relative viability (NCI-H1755; first compound 0.2 µM)?
A: 0.944

Q: And the relative viability (NCI-H1755; first compound 0.6325 µM)?
A: 0.765

Q: And the relative viability (NCI-H1755; first compound 2 µM)?
A: 0.721

Q: What about the relative viability (NCI-H1755; first compound 6.325 µM) of the same compound?
A: 0.748

Q: And the relative viability (NCI-H1755; first compound 20 µM)?
A: 0.663

Q: And the relative viability (NCI-H1793; first compound 0.2 µM)?
A: 0.932

Q: What about the relative viability (NCI-H1793; first compound 0.6325 µM) of the same compound?
A: 0.488

Q: And the relative viability (NCI-H1793; first compound 6.325 µM)?
A: 0.797

Q: What about the relative viability (NCI-H1793; first compound 20 µM) of the same compound?
A: 0.762

Q: And the relative viability (NCI-H1915; first compound 0.2 µM)?
A: 0.605

Q: What about the relative viability (NCI-H1915; first compound 0.6325 µM) of the same compound?
A: 0.378

Q: What about the relative viability (NCI-H1915; first compound 2 µM) of the same compound?
A: 0.446

Q: And the relative viability (NCI-H1915; first compound 6.325 µM)?
A: 0.625

Q: And the relative viability (NCI-H1915; first compound 20 µM)?
A: 0.482

Q: What about the relative viability (NCI-H1944; first compound 0.2 µM) of the same compound?
A: 0.724

Q: What about the relative viability (NCI-H1944; first compound 0.6325 µM) of the same compound?
A: 0.4

Q: What about the relative viability (NCI-H1944; first compound 2 µM) of the same compound?
A: 0.428

Q: And the relative viability (NCI-H1944; first compound 6.325 µM)?
A: 0.531

Q: What about the relative viability (NCI-H1944; first compound 20 µM) of the same compound?
A: 0.539

Q: What about the relative viability (NCI-H2085; first compound 0.2 µM) of the same compound?
A: 1.06

Q: What about the relative viability (NCI-H2085; first compound 0.6325 µM) of the same compound?
A: 0.776

Q: What about the relative viability (NCI-H2085; first compound 2 µM) of the same compound?
A: 0.706

Q: And the relative viability (NCI-H2085; first compound 6.325 µM)?
A: 0.798

Q: What about the relative viability (NCI-H2085; first compound 20 µM) of the same compound?
A: 0.154

Q: What about the relative viability (NCI-H2087; first compound 0.6325 µM) of the same compound?
A: 0.479

Q: What about the relative viability (NCI-H2087; first compound 2 µM) of the same compound?
A: 0.604

Q: And the relative viability (NCI-H2087; first compound 6.325 µM)?
A: 0.477

Q: And the relative viability (NCI-H2087; first compound 20 µM)?
A: 0.336

Q: What about the relative viability (NCI-H2228; first compound 0.2 µM) of the same compound?
A: 0.792

Q: And the relative viability (NCI-H2228; first compound 0.6325 µM)?
A: 0.74

Q: What about the relative viability (NCI-H2228; first compound 2 µM) of the same compound?
A: 0.6

Q: And the relative viability (NCI-H2228; first compound 6.325 µM)?
A: 0.606

Q: What about the relative viability (NCI-H2228; first compound 20 µM) of the same compound?
A: 0.0625

Q: What about the relative viability (NCI-H2342; first compound 0.2 µM) of the same compound?
A: 0.694

Q: What about the relative viability (NCI-H2342; first compound 0.6325 µM) of the same compound?
A: 0.913

Q: And the relative viability (NCI-H2342; first compound 6.325 µM)?
A: 0.748

Q: What about the relative viability (NCI-H2342; first compound 20 µM) of the same compound?
A: 0.607

Q: What about the relative viability (NCI-H2347; first compound 0.2 µM) of the same compound?
A: 0.574

Q: What about the relative viability (NCI-H2347; first compound 0.6325 µM) of the same compound?
A: 0.656

Q: What about the relative viability (NCI-H2347; first compound 2 µM) of the same compound?
A: 0.348

Q: And the relative viability (NCI-H2347; first compound 6.325 µM)?
A: 0.551

Q: And the relative viability (NCI-H2347; first compound 20 µM)?
A: 0.327

Q: And the relative viability (NCI-H522; first compound 0.2 µM)?
A: 0.724

Q: And the relative viability (NCI-H522; first compound 0.6325 µM)?
A: 0.923

Q: What about the relative viability (NCI-H522; first compound 2 µM) of the same compound?
A: 0.733

Q: And the relative viability (NCI-H522; first compound 6.325 µM)?
A: 0.83

Q: And the relative viability (NCI-H522; first compound 20 µM)?
A: 0.213

Q: What about the relative viability (NCI-H661; first compound 0.2 µM) of the same compound?
A: 0.853

Q: What about the relative viability (NCI-H661; first compound 0.6325 µM) of the same compound?
A: 0.771

Q: And the relative viability (NCI-H661; first compound 2 µM)?
A: 0.774

Q: What about the relative viability (NCI-H661; first compound 6.325 µM) of the same compound?
A: 0.816

Q: What about the relative viability (NCI-H661; first compound 20 µM) of the same compound?
A: 0.759

Q: What about the relative viability (PC-3 [JPC-3]; first compound 0.2 µM) of the same compound?
A: 0.964

Q: And the relative viability (PC-3 [JPC-3]; first compound 0.6325 µM)?
A: 0.579

Q: What about the relative viability (PC-3 [JPC-3]; first compound 2 µM) of the same compound?
A: 0.76

Q: And the relative viability (PC-3 [JPC-3]; first compound 6.325 µM)?
A: 1.03

Q: What about the relative viability (PC-3 [JPC-3]; first compound 20 µM) of the same compound?
A: 0.747

Q: And the relative viability (SK-LU-1; first compound 0.2 µM)?
A: 0.852

Q: And the relative viability (SK-LU-1; first compound 0.6325 µM)?
A: 0.761

Q: And the relative viability (SK-LU-1; first compound 2 µM)?
A: 0.839

Q: What about the relative viability (SK-LU-1; first compound 6.325 µM) of the same compound?
A: 0.673

Q: And the relative viability (SK-LU-1; first compound 20 µM)?
A: 0.561

Reference: the supplement of paper PMC10307832
